# Measurements as given in patent publication US20250346597A1, “CONDENSED HETEROCYCLIC COMPOUNDS AS INHIBITOR OF DIACYLGLYCEROL KINASES” (BEONE MEDICINES I GMBH, priority 2023, published 2025).
# What was measured:
# [1] = molecular target: DGKα (Homo sapiens (Human), UniProt P23743); assay: Biochemical DGK IC50 assay (ADP-Glo, lipid micelle substrate), DGKα; details: full length DGKα […], ATP 140 μM, DAG 80 μM; note: full length DGKα 7.5 nM
# Description: (§1) Enzymatic reactions of DGKζ, DGKα and DGKδ were performed using ADP-Glo assay with lipid micelle substrate. […] Full length DGKα (D21-10BG, SignalChem) and full length DGKδ (D23-10G, SignalChem) were purchased. Lipid micelle was prepared by dissolving DAG (Sigma, 317505-10MG) and PS (Sigma, P7769-100MG) with chloroform which was furtherly removed by rotary evaporation. The resulted product was resuspended in buffer containing 25 mM HEPES pH 7.0, 0.5 mM EDTA and 160 mM Octyl P-D glucopyranoside by vigorous mixing and ultrasonic (IID, Scientz).
# (§2) The inhibition activities testing for the compound disclosed herein were carried out at room temperature in assay buffer containing 50 mM HEPES, 10 mM MgCl2, 0.01% BSA, 0.1 mM Na3VO4, 0.005% Tween-20 and 0.01 mM CaCl2. Compounds in DMSO were dispensed into wells of a black 384 well plate (Corning 4514) using D300e digital dispenser (Tecan). […] 3 μL 2× enzyme solution was added to wells. […] After 1 hour reaction, 5 μL ADP-Glo reagent (Promga V9101) was added and incubated for 40 minutes. 10 μL Kinase Detection reagent was added and incubated for 30 minutes. Luminescence was measured on a microplate reader (PHERAstar FSX, BMG labtech). The IC50s are calculated based on inhibition of enzyme activity in the presence of increasing concentrations of compounds.
# [2] = molecular target: DGKζ (Homo sapiens (Human), UniProt Q13574); assay: Biochemical DGK IC50 assay (ADP-Glo, lipid micelle substrate), DGKζ; details: full length DGKζ 0.5 nM, ATP 140 μM, DAG 80 μM
# Description: as §1, §2
# Human His-TEV-DGK-zeta-pFastBac1 and human baculovirus samples was generated using the Bac-to-Bac baculovirus expression system (Invitrogen) according to the manufacturer's protocol. The DNA used for expression of DGK-zeta, have SEQ ID Nos: 1. Baculovirus amplification was achieved using infected SF9 cells at 1:2000 virus/cells ratios, and grown for 96 hours at 27° C. post-transfected.
# The expression scaled up for each protein was carried out in the […] from CORNING. 4 L of 3×10^6 cells/mL Sf9 cells (Expression System, Invitrogen) grown in SF900™ II SFM insect medium (Expression System) was infected with virus stock at 1:200 virus/cells ratio, and grown for 48 hours at 27° C. post-transfection. The infected cell culture was harvested by centrifugation at 6000 rpm for 15 min 4° C. in a SORVALL LYNX6000 centrifuge. The cell pellets were stored at −80° C.
# Full length human DGKζ produced as described above, was purified from Sf9 baculovirus-infected insect cell paste. The cells were lysed using sonication method, and the lysates were clarified by centrifugation.
# Chain of DGKα (P23743 whole entry): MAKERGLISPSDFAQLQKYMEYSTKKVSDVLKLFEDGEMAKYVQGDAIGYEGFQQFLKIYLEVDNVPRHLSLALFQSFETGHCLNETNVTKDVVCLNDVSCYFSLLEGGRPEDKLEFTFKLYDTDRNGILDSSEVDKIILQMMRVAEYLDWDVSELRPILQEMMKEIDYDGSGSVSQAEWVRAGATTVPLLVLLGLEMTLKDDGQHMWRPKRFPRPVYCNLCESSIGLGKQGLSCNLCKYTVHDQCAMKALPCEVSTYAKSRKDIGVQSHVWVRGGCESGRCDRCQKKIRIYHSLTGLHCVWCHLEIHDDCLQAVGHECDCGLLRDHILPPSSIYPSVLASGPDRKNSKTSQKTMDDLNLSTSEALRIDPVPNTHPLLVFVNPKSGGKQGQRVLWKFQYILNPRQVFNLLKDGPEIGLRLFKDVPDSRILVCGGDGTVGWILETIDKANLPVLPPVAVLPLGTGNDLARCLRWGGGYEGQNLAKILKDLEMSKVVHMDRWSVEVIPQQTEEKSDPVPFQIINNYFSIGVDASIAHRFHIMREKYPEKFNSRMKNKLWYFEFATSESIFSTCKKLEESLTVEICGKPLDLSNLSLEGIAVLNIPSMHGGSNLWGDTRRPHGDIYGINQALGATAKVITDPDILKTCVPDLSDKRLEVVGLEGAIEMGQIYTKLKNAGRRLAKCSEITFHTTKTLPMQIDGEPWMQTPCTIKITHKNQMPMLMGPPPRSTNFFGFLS
# Chain of DGKζ (Q13574 other isoform, or with tags, fused parts or gaps): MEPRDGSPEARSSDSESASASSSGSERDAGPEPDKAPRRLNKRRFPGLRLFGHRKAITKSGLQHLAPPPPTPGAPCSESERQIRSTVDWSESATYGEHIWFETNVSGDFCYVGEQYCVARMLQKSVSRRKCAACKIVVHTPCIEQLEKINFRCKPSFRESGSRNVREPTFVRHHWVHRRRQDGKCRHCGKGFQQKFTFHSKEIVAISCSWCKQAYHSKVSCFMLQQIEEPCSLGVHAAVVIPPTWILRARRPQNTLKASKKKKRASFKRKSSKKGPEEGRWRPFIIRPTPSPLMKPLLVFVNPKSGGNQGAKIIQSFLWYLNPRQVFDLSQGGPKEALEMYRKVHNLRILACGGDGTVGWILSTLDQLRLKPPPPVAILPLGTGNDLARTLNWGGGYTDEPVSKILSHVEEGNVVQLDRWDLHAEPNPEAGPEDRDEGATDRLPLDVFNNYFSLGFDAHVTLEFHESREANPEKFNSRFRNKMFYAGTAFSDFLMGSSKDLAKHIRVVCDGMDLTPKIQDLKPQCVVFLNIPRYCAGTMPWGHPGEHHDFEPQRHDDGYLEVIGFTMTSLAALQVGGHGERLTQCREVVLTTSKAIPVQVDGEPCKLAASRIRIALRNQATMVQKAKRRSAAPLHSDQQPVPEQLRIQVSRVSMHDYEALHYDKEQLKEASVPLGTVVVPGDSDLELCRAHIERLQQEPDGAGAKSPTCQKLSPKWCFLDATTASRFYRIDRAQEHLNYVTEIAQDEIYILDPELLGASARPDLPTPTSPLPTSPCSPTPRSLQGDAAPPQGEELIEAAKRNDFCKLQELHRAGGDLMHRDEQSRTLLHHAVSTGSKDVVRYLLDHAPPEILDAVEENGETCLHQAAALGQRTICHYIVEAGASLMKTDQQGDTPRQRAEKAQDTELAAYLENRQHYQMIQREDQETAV
IC50 [1],IC50 [2],Compound
391 nM,3200 nM,"CC#CCn1cc2c(n1)c(N1C[C@@H](CC)N(C(C)c3ccc4nc(C)sc4c3)C[C@@H]1CC)cc(=O)n2C (single isomer, unassigned) [Compound A114b]"
406 nM,6.4 nM,"CC[C@H]1CN(C(C)c2ccc(C(C)(C)F)nc2)[C@H](CC)CN1c1cc(=O)n(C)c2cn(CC#N)nc12 (single isomer, unassigned) [Compound A46a]"
97 nM,49 nM,"CC[C@H]1CN(C(C)c2ccc3c(c2)OCO3)[C@H](CC)CN1c1cc(=O)n(C)c2cn(CC#N)nc12 (single isomer, unassigned) [Compound A68a]"
703 nM,83 nM,"CC[C@H]1CN(C(C)c2ccc(C(F)(F)F)c(C)n2)[C@H](CC)CN1c1cc(=O)n(C)c2cn(CC#N)nc12 (stereo partly drawn) [Compound A50, 2-(7-((2S,5R)-2,5-diethyl-4-(1-(6-methyl-5-(trifluoromethyl)pyridin-2-yl)ethyl)piperazin-1-yl)-4-methyl-5-oxo-4,5-dihydro-2H-pyrazolo[4,3-b]pyridin-2-yl)acetonitrile]"
515 nM,2870 nM,"CC[C@H]1CN(C(C)c2ccc(C(=O)NC)cc2)[C@H](CC)CN1c1cc(=O)n(C)c2cn(CC#N)nc12 (single isomer, unassigned) [Compound A193a]"
1110 nM,2690 nM,"CC[C@H]1CN(C(C)c2ccc(CN3CCC(OC)C3)cc2)[C@H](CC)CN1c1cc(=O)n(C)c2cn(CC#N)nc12 (single isomer, unassigned) [Compound A203a]"
32 nM,83 nM,"CC#CCn1cc2c(n1)c(N1C[C@@H](CC)N(C(C)c3ccc4nc(C)sc4c3)C[C@@H]1CC)cc(=O)n2C (single isomer, unassigned) [Compound A114a]"
17100 nM,> 10000 nM,"CC[C@H]1CN(C(C)c2ccc(C3CC3)nc2)[C@H](CC)CN1c1cc(=O)n(C)c2cn(CC3COC3)nc12 (stereo partly drawn) [Compound A122, 7-((2S,5R)-4-(1-(6-cyclopropylpyridin-3-yl)ethyl)-2,5-diethylpiperazin-1-yl)-4-methyl-2-(oxetan-3-ylmethyl)-2,4-dihydro-5H-pyrazolo[4,3-b]pyridin-5-one]"
1900 nM,> 10000 nM,"CC[C@H]1CN(C(C)c2ccn3nccc3n2)[C@H](CC)CN1c1nc(=O)n(C)c2cn(CC#N)nc12 (single isomer, unassigned) [Compound A163a]"
5900 nM,551 nM,"CC[C@H]1CN(C(C)c2cc(F)c(C(=O)N(C)C)c(F)c2)[C@H](CC)CN1c1cc(=O)n(C)c2cn(CC#N)nc12 (single isomer, unassigned) [Compound A3b]"
269 nM,431 nM,"CC#CCn1cc2c(n1)c(N1C[C@@H](CC)N(C(C)c3ccc4nc(C)sc4c3)C[C@@H]1C)cc(=O)n2C (single isomer, unassigned) [Compound A115a]"
1850 nM,974 nM,CC[C@H]1CN(C(C)c2ccc3ncsc3c2)[C@H](CC)CN1c1c(Br)c(=O)n(C)c2cn(CC#N)nc12 (some centres unmarked) [Compound A94]
788 nM,108 nM,"CC[C@H]1CN(C(C)c2ccc(C3CC3)nc2)[C@H](CC)CN1c1c(F)c(=O)n(C)c2cn(CC#N)nc12 (single isomer, unassigned) [Compound A48b]"
6020 nM,2200 nM,"CC[C@H]1CN(C(C)c2cc(F)c(CN(C)C)c(F)c2)[C@H](CC)CN1c1cc(=O)n(C)c2cn(CC#N)nc12 (single isomer, unassigned) [Compound A25b]"
90 nM,1800 nM,"CC[C@H]1CN(C(C)c2ccc3cncn3c2)[C@H](CC)CN1c1cc(=O)n(C)c2cn(CC#N)nc12 (single isomer, unassigned) [Compound A83b]"
53 nM,841 nM,"CC[C@H]1CN(C(C)c2ccc3cnncc3c2)[C@H](CC)CN1c1cc(=O)n(C)c2cn(CC#N)nc12 (single isomer, unassigned) [Compound A186a]"
12 nM,55 nM,"CC[C@H]1CN(C(C)c2ccn3nccc3n2)[C@H](CC)CN1c1cc(=O)n(C)c2cn(CC#N)nc12 (single isomer, unassigned) [Compound A154b]"
92 nM,14 nM,"CC[C@H]1CN(C(C)c2cc3scnc3cc2F)[C@H](CC)CN1c1cc(=O)n(C)c2cn(CC#N)nc12 (single isomer, unassigned) [Compound A103a]"
497 nM,73 nM,"CC[C@H]1CN(C(C)c2cc(F)c(CN3CCS(=O)(=O)CC3)c(F)c2)[C@H](CC)CN1c1cc(=O)n(C)c2cn(CC#N)nc12 (stereo partly drawn) [Compound A5, 2-(7-((2S,5R)-4-(1-(4-((1,1-dioxidothiomorpholino)methyl)-3,5-difluorophenyl)ethyl)-2,5-diethylpiperazin-1-yl)-4-methyl-5-oxo-4,5-dihydro-2H-pyrazolo[4,3-b]pyridin-2-yl)acetonitrile]"
932 nM,600 nM,"CC[C@H]1CN(C(C)c2ccc3nsnc3c2)[C@H](CC)CN1c1cc(=O)n(C)c2cn(CC#N)nc12 (single isomer, unassigned) [Compound A106b]"
5510 nM,108 nM,"CC[C@H]1CN(C(C)c2cnc3ncsc3c2)[C@H](CC)CN1c1cc(=O)n(C)c2cn(CC#N)nc12 (single isomer, unassigned) [Compound A98a]"
104 nM,51 nM,"CC[C@H]1CN(C(C)c2ccn3nc(C)cc3c2)[C@H](CC)CN1c1cc(=O)n(C)c2cn(CC#N)nc12 (single isomer, unassigned) [Compound A162a]"
3050 nM,8520 nM,"CC[C@H]1CN(C(C)c2ccc3nccn3c2)[C@H](CC)CN1c1cc(=O)n(C)c2cn(CC#N)nc12 (single isomer, unassigned) [Compound A82b]"
480 nM,8300 nM,"CC#CCn1cc2c(n1)c(N1C[C@@H](CC)N(C(C)c3cnc4ccccc4n3)C[C@@H]1CC)cc(=O)n2C (single isomer, unassigned) [Compound A206a]"
2720 nM,> 10000 nM,"CCc1cn2nc(C(C)N3C[C@H](CC)N(c4cc(=O)n(C)c5cn(CC#N)nc45)C[C@H]3CC)ccc2n1 (single isomer, unassigned) [Compound A153a]"
2400 nM,1750 nM,"CC[C@H]1CN(C(C)c2ccc3nc(OC4CC4)sc3n2)[C@H](CC)CN1c1cc(=O)n(C)c2cn(CC#N)nc12 (single isomer, unassigned) [Compound A146a]"
343 nM,315 nM,"CC[C@H]1CN(C(C)c2ccc(COC3CCOC3)cc2)[C@H](CC)CN1c1cc(=O)n(C)c2cn(CC#N)nc12 (stereo partly drawn) [Compound A17, 2-(7-((2S,5R)-2,5-diethyl-4-(1-(4-(((tetrahydrofuran-3-yl)oxy)methyl)phenyl)ethyl)piperazin-1-yl)-4-methyl-5-oxo-4,5-dihydro-2H-pyrazolo[4,3-b]pyridin-2-yl)acetonitrile]"
25000 nM,1870 nM,"CC[C@H]1CN(C(C)c2cnc3c(c2)ncn3C)[C@H](CC)CN1c1cc(=O)n(C)c2cn(CC#N)nc12 (stereo partly drawn) [Compound A78, 2-(7-((2S,5R)-2,5-diethyl-4-(1-(3-methyl-3H-imidazo[4,5-b]pyridin-6-yl)ethyl)piperazin-1-yl)-4-methyl-5-oxo-4,5-dihydro-2H-pyrazolo[4,3-b]pyridin-2-yl)acetonitrile]"
